Results from patent US6375928B1, “Neutrophil stimulating peptides” (Peptech Limited, priority 1990, dated 2002).
Entries after “also recorded” stand apart in the source; their conditions may differ.

Tests used:
human neutrophils [1] = experiment: Chemiluminescence assay: priming of neutrophils for F-met-leu-phe response (respiratory burst); type: cell-based; details: for lucigenin dependent chemiluminescence, peak of response: 20 min pretreatment before f-met-leu-phe; for chemiluminescence (repeat experiment, Table 3): peptide + fMLP
Method: Purified human neutrophils were pretreated with peptide for 20 minutes before the addition of f-met-leu-phe. The lucigenin dependent chemiluminescence response, which reflects superoxide production, was then measured. The results obtained are set out in Table 2 and are expressed as mV of lucigenin dependent chemiluminescence and represent the maximal cell activity attained.
Results are expressed as mV of lucigenin dependent chemiluminescence and represent peak of response i.e. the maximal cell activity attained.

neutrophils [2] = experiment: Superoxide formation, cytochrome reduction assay; type: cell-based
Excerpt: The effect of peptides 308 and 309 (SEQ ID NOs. 10 & 11) on superoxide formation was examined by the cytochrome reduction assay, according to the procedure of Ferrante, 1989 (Infection and Immunity), 57: 2115-2122). The results, expressed as n moles of O2/5×10^5 cells as set out in Table 6.

neutrophils [3] = experiment: Neutrophil random migration out of wells in agarose; type: cell-based
Excerpt: Migration of cells is an important property by which cells reach infection sites. Their accumulation at these sites is also dependent on the capacity of inflammatory mediators to inhibit their migration out of the sites.

neutrophils [4] = experiment: Chemotactic properties, neutrophil migration under agarose; type: cell-based
Method: 5 μl of neutrophils (2×10^5 cells) were added to the inner well, with chemotactic agent or control medium added to the outer wells. Migration at various time intervals was then measured.

neutrophils [5] = experiment: Neutrophil degranulation: β-glucuronidase release (azurophilic granules); type: cell-based; details: for β-glucuronidase release, Exp. 1 / β-glucuronidase release, Exp. 2 / β-glucuronidase release, Exp. 3 / β-glucuronidase release, Exp. 4: in the presence of CytoB
neutrophils [6] = experiment: Neutrophil degranulation: Vitamin B12 binding protein release (specific granules); type: cell-based; details: for Vitamin B12 Binding Protein, Exp. 1 / Vitamin B12 Binding Protein, Exp. 2 / Vitamin B12 Binding Protein, Exp. 3 / Vitamin B12 Binding Protein, Exp. 4: in the presence of CytoB
human neutrophils [7] = experiment: Chemiluminescence assay: priming of neutrophils for F-met-leu-phe response (respiratory burst); type: cell-based; details: peptide alone
P. falciparum = experiment: Ability of peptide-stimulated neutrophils to inhibit in vitro growth of malaria parasites; type: cell-based; details: neutrophils incubated with peptide 37° C. 30 minutes; thawed normal, normal and immune serum (FIG. 5)
Method: The ability of neutrophils stimulated with peptides 418 and 419 (SEQ ID Nos. 17 & 18) to inhibit in vitro growth of malaria parasites was assessed.
Briefly, neutrophils were incubated with peptides 418 and 419 (SEQ ID NOs. 17 & 18) at 37° C. for 30 minutes and then washed with HBSS. The neutrophils were then added to a culture of red blood cells infected with P. falciparum. The cultures were then examined microscopically for evidence of parasite death.

Pseudomonas aeruginosa = experiment: Pseudomonas experiment: chronic lung infection in mice; type: in vivo; details: female Swiss mice, chronic Pa lung infection; 0.5 mg peptide tail-vein each day for 3 days from day 12; n=4; p<0.05 vs carrier (5.25)
Method: Chronic lung infection by Pseudomonas aeruginosa (Pa) is common in cystic fibrosis. […] The present inventors reasoned that pre-sensitising neutrophils with TNF intravascularly, prior to their entry into the lung, may overcome this problem. […] The ability of i.v.-injected 419 (SEQ ID NO. 18) to protect against chronic lung injury induced by Pseudomonas was tested. Chronic lung infections were established in 120 14 week female Swiss mice by introducing the bacteria suspended in agar beads (<200 μm diameter) into the lung. Mice were anaesthetised and 30 μl of bead suspension introduced via a polyethylene cannula into the right bronchus through a small incision between the tracheal rings. After recover, animals (n=20) developed a chronic infection followed for at least 10-14 days. Control animals included: sham-operated (n=2); and those inoculated with sterile beads (n=6) or with beads containing fresh, heat-killed Pa (n=5).

monocytes = experiment: Priming of monocytes for a respiratory burst (chemiluminescence); type: cell-based; details: 10^6 monocytes/tube/ml, 30 min pre-incubation 37° C.
Method: Peptide 419 (SEQ ID NO. 18) was assayed for its ability to prime monocytes for a respiratory burst. This assay was conducted essentially as described above for neutrophils except that the cells were cultured for 24 hours prior to assay.

ICAM = experiment: Induction of ICAM on human umbilical vein endothelial cells (HUVEC); type: cell-based; details: peptide 1 mg, four hours at 37° C. (FIG. 7)
Method: Peptide 419 (SEQ ID NO. 18) was tested for its ability to induce ICAM using the following procedure.
The cells were then washed extensively with PBS containing Ca^++ and Mg^++ and fixed ([…] 0.025% guteraldehyde, overnight, 4° C.). The cells were again washed, and incubated with anti-ICAM antibody (84H10) for 1 hr at room temperature. The cells were washed and incubated for a further 1 hr at room temperature in the presence of rabbit anti-mouse Ig-HRP. Surface expression of Icam was then quantitated using the ABTS substrate by absorption at OD405 nm.

[8] = towards agent well, 1 × 10^−7 M fMLP, peptide, or 10^3 U/ml TNFα, 2×10^5 neutrophils
[9] = peptide 100 μg/10^6 cells (or HBSS) + fMLP
[10] = peptide 100 μg/10^6 cells, no fMLP
[11] = with fMLP, 419 100 μg/10^6 monocytes, 50 U TNF or no pre-treatment
[12] = without fMLP, 419 100 μg/10^6 monocytes or 50 U TNF

G L Y L I Y S Q V L F K G Q G (GLYLIYSQVLFKGQG) [Peptide 308]
neutrophil stimulating activity / stimulation of neutrophil respiratory burst (in words) (human neutrophils [1]): neutrophil stimulating activity | priming of neutrophils for the respiratory burst associated with f-met-leu-phe treatment (in words) (human neutrophils [1]): found to prime human neutrophils for the respiratory burst; also recorded: particularly potent primer of neutrophils | lucigenin dependent chemiluminescence, peak of response (human neutrophils [1]; peptide 1 μg/10^6 cells): 0.91 mV | lucigenin dependent chemiluminescence, peak of response (human neutrophils [1]; peptide 10 μg/10^6 cells): 4.80 mV | lucigenin dependent chemiluminescence, peak of response (human neutrophils [1]; peptide 100 μg/10^6 cells): 49.52 mV | chemiluminescence (repeat experiment, Table 3) (human neutrophils [1]; 10 μg/10^6 cells): 2.74 mV | chemiluminescence (repeat experiment, Table 3) (human neutrophils [1]; 100 μg/10^6 cells): 28.56 mV | superoxide formation (neutrophils [2]; peptide + fMLP, 10 μg/5 × 10^5 cells): 5.00 n moles of O2/5×10^5 cells | superoxide formation (neutrophils [2]; peptide + fMLP, 100 μg/5 × 10^5 cells): 6.729 n moles of O2/5×10^5 cells | superoxide formation (neutrophils [2]; peptide alone, 10 μg/5 × 10^5 cells): 2.78 n moles of O2/5×10^5 cells | superoxide formation (neutrophils [2]; peptide alone, 100 μg/5 × 10^5 cells): 4.892 n moles of O2/5×10^5 cells | effect on neutrophil random migration (in words) (neutrophils [3]): potent inhibitors of neutrophil migration | Inhibition of Migration (neutrophils [3]; 10 μg/10^6 cells): 0% | Inhibition of Migration (neutrophils [3]; 100 μg/10^6 cells): 100% | chemotactic properties (in words) (neutrophils [4]): strongly chemotactic | Migration distance at 1.5 h, Agent (neutrophils [4]; [8]): 0.66 mm | Migration distance at 2.5 h, Agent (neutrophils [4]; [8]): 1.41 mm | release from azurophilic granules (β-glucuronidase), in words (neutrophils [5]; absence of fMLP): decreased the release | β-glucuronidase release, Exp. 1 (neutrophils [5]; [9]): 17.57% | β-glucuronidase release, Exp. 2 (neutrophils [5]; [9]): 28.86% | β-glucuronidase release, Exp. 3 (neutrophils [5]; [9]): 17.86% | β-glucuronidase release, Exp. 4 (neutrophils [5]; [9]): 18.20% | β-glucuronidase release, Exp. 1 (neutrophils [5]; [10]): 0.8% | β-glucuronidase release, Exp. 2 (neutrophils [5]; [10]): 0.65% | β-glucuronidase release, Exp. 3 (neutrophils [5]; [10]): 2.76% | β-glucuronidase release, Exp. 4 (neutrophils [5]; [10]): 0.72% | release from azurophilic granules (β-glucuronidase), in words (neutrophils [5]; presence of fMLP): still apparent following stimulation with fMLP | release from specific granules (Vitamin B12 binding protein), in words (neutrophils [6]; absence of fMLP): decreased the release | Vitamin B12 Binding Protein, Exp. 1 (neutrophils [6]; [9]): 35.81 | Vitamin B12 Binding Protein, Exp. 2 (neutrophils [6]; [9]): 27.59 | Vitamin B12 Binding Protein, Exp. 3 (neutrophils [6]; [9]): 26.55 | Vitamin B12 Binding Protein, Exp. 4 (neutrophils [6]; [9]): 21.51 | Vitamin B12 Binding Protein, Exp. 1 (neutrophils [6]; [10]): 2.00 | Vitamin B12 Binding Protein, Exp. 2 (neutrophils [6]; [10]): 2.08 | Vitamin B12 Binding Protein, Exp. 3 (neutrophils [6]; [10]): 5.70 | Vitamin B12 Binding Protein, Exp. 4 (neutrophils [6]; [10]): 2.25 | release from specific granules (Vitamin B12 binding protein), in words (neutrophils [6]; presence of fMLP): still apparent following stimulation with fMLP | chemiluminescence (repeat experiment, Table 3) (human neutrophils [7]; 10 μg/10^6 cells): 1.00 mV | chemiluminescence (repeat experiment, Table 3) (human neutrophils [7]; 100 μg/10^6 cells): 11.76 mV

P S T H V L I T H T I (PSTHVLITHTI) [Peptide 419]
neutrophil stimulating activity / stimulation of neutrophil respiratory burst (in words) (human neutrophils [1]): neutrophil stimulating activity | Chemiluminescence mean + sem (human neutrophils [1]; 100 μg peptide, priming neutrophils for respiratory burst): 18.6 ± 0.5 mV | inhibition of in vitro growth of malaria parasites by stimulated neutrophils (in words) (P. falciparum): more effective than TNF | percentage peripheral consolidation, mean (se) (Pseudomonas aeruginosa): 0.25 (se 0.25) % | Peak mV Chemiluminescence, Mean ± S.D. (monocytes; [11]): 240.0 ± 32.527 mV | Peak mV Chemiluminescence, experiment 1 (monocytes; [11]): 263.0 mV | Peak mV Chemiluminescence, experiment 2 (monocytes; [11]): 217.0 mV | Peak mV Chemiluminescence, Mean ± S.D. (monocytes; [12]): 3.385 ± 1.365 mV | Peak mV Chemiluminescence, experiment 1 (monocytes; [12]): 2.42 mV | Peak mV Chemiluminescence, experiment 2 (monocytes; [12]): 4.35 mV | induction of ICAM surface expression (in words) (ICAM): does not induce the cell adhesion molecule ICAM
